{"source": "patent US9101635B2", "about": "(priority 2009, dated 2015)", "key": {"[1]": {"test_system": "HIV/EBOV-GP pseudotype virus", "assay": "microbe, parasite or virus in culture", "type": "cell-based, EBOV Zaire strain", "details": "for inhibition at 25 µM: read-out: Inhibition of pseudotype virus at 25 μM in 293T cells (%) HIV/EBOV-GP"}, "in vitro [2]": {"assay": "in vitro", "details": "human"}, "[3]": {"test_system": "HIV/EBOV-GP pseudotype virus", "assay": "microbe, parasite or virus in culture", "type": "cell-based, EBOV Zaire strain", "details": "Human immunodeficiency virus 1, HEK-293T"}, "[4]": {"test_system": "recombinant Zaire EBOV expressing green fluorescent protein (GFP-ZEBOV)", "assay": "microbe, parasite or virus in culture", "type": "cell-based, EBOV (Zaire subtype, 1995 strain)"}, "in vitro [5]": {"assay": "in vitro", "details": "African green monkey"}, "[6]": {"test_system": "HIV/VSV-G pseudotype virus", "assay": "microbe, parasite or virus in culture", "type": "cell-based, vesicular stomatitis virus", "details": "for inhibition at 25 µM: Human immunodeficiency virus 1, HEK-293T, read-out: Inhibition of pseudotype virus at 25 μM in 293T cells (%) HIV/VSV-GP"}, "[7]": {"test_system": "HIV/MARV-GP pseudotype virus", "assay": "microbe, parasite or virus in culture", "type": "cell-based, MARV (Lake Victoria strain)"}, "[8]": {"test_system": "HIV/EBOV-GP pseudotype virus", "type": "cell-based, EBOV Zaire strain"}, "[9]": {"test_system": "HIV/HA(H5) pseudotype virus", "assay": "microbe, parasite or virus in culture", "type": "cell-based, influenza virus subtype H5"}, "[10]": {"test_system": "HIV/LASV-GP pseudotype virus", "assay": "microbe, parasite or virus in culture", "type": "cell-based, Lassa virus (LASV)"}, "EboZ replication": {"test_system": "EboZ replication", "details": "read-out: IC50, EboZ replication in vitro; cited from earlier work"}, "VSV-G": {"target": "VSV-G (Vesicular stomatitis Indiana virus, UniProt P03522)", "sequence (P03522 17-511 limits assumed)": "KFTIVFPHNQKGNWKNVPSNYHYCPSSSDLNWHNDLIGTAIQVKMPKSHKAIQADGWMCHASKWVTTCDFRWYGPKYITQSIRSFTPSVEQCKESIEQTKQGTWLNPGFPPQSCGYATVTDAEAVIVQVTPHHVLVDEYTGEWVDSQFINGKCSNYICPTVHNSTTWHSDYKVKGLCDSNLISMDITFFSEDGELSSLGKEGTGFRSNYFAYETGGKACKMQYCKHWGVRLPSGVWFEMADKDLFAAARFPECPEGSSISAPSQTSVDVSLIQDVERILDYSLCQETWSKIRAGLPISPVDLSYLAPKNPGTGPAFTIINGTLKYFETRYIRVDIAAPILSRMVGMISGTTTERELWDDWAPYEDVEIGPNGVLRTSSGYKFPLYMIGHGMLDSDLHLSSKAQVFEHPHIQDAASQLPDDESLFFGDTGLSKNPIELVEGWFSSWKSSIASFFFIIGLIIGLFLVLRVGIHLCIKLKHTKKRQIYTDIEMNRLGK", "type": "cell-based", "details": "pH 5"}, "EBOV Δmucin GP": {"test_system": "EBOV Δmucin GP", "type": "cell-based", "details": "pH 5"}, "[11]": {"details": "Human immunodeficiency virus 1, HEK-293T, read-out: HIV/EBOV-Gp IC90 (μM)"}, "[12]": {"details": "Human immunodeficiency virus 1, HEK-293T, read-out: IC90 (μM) against HIV/EBOV-GP"}, "[13]": {"details": "Human immunodeficiency virus 1, HEK-293T"}, "[14]": {"details": "Zaire ebolavirus, Vero C1008, 48 h, read-out: GFP-ZEBOV IC50 (μM)"}, "[15]": {"details": "Zaire ebolavirus, Vero C1008, 48 h, read-out: GFP-ZEBOV IC90 (μM)"}, "[16]": {"details": "Human immunodeficiency virus 1, read-out: HIV/MARV-GP IC90 (μM)"}, "[17]": {"details": "Human immunodeficiency virus 1, HEK-293T, read-out: HIV/EBOV-GP IC90 (μM)"}, "[18]": {"details": "Zaire ebolavirus, Vero C1008, read-out: Infectious EBOV IC50 (μM)"}, "[19]": {"details": "Human immunodeficiency virus 1, read-out: HIV/HA (H5) IC90 (μM)"}, "[20]": {"details": "Human immunodeficiency virus 1, read-out: HIV/LASV-GP IC90 (μM)"}}, "note": "pIC50: −log10 of the molar value. Where two headings read alike, the source gives them in different places."}
{"molecule": "N=c1c2c(-c3ccccc3)c(-c3ccccc3)n(Cc3ccco3)c2ncn1CCCn1ccnc1", "note": "[F]", "values": [{"measurement": "IC90", "setting": "[1]; [11]", "result": 10.9, "unit": "µM"}, {"measurement": "IC90", "setting": "[1]; [12]", "result": 10.9, "unit": "µM"}, {"measurement": "inhibition at 25 µM", "setting": "[1]; [13]", "result": 98, "unit": "%"}, {"measurement": "CC50", "setting": "in vitro [2]", "result": 25, "unit": "µM"}, {"measurement": "inhibition at 10 µM", "setting": "[3]; read-out: inhibition of infection, Assay 4: compounds pre-incubated with 293T cells at 4° C. before virus", "result": "> 75", "unit": "%"}, {"measurement": "GFP-ZEBOV percentage in parentheses beside IC90 >25", "setting": "[4]", "result": ">25 (78%)"}, {"measurement": "IC50", "setting": "[4]; [14]", "result": 15, "unit": "µM"}, {"measurement": "IC90", "setting": "[4]; [15]", "result": "> 25", "unit": "µM"}, {"measurement": "CC50", "setting": "in vitro [5]; GFP-ZEBOV CC50 (μM)", "result": 48.5, "unit": "µM"}, {"measurement": "inhibition at 25 µM", "setting": "[6]", "result": 20, "unit": "%"}]}
{"molecule": "CCCN(C)c1c([N+](=O)[O-])cc([N+](=O)[O-])c2cccnc12", "note": "[A, 5,7-dinitro-8-[methyl(propyl)amino]quinoline]", "values": [{"measurement": "IC90", "setting": "[1]; [11]", "result": 18.4, "unit": "µM"}, {"measurement": "IC90", "setting": "[1]; [12]", "result": 18.4, "unit": "µM"}, {"measurement": "inhibition at 25 µM", "setting": "[1]; [13]", "result": 98, "unit": "%"}, {"measurement": "CC50", "setting": "in vitro [2]", "result": 30, "unit": "µM"}, {"measurement": "IC50", "setting": "[4]; [14]", "result": 7.5, "unit": "µM"}, {"measurement": "IC90", "setting": "[4]; [15]", "result": 10, "unit": "µM"}, {"measurement": "CC50", "setting": "in vitro [5]; GFP-ZEBOV CC50 (μM)", "result": 15, "unit": "µM"}, {"measurement": "inhibition at 25 µM", "setting": "[6]", "result": 25, "unit": "%"}]}
{"molecule": "COc1ccc(O)c(C2=Nc3ccccc3N=C(c3cccs3)C2)c1", "note": "[Compound G10]", "values": [{"measurement": "pIC50", "setting": "[1]; [13]", "result": "< 4.00"}]}
{"molecule": "COc1ccc(O)c(C2=Nc3ccccc3N=C(C(F)(F)F)C2)c1", "note": "[Compound G7]", "values": [{"measurement": "pIC50", "setting": "[1]; [13]", "result": 4.07}]}
{"molecule": "Cc1cc2c(cc1C)N=C(C(F)(F)F)CC(c1ccc(Cl)cc1)=N2", "note": "[Compound G2]", "values": [{"measurement": "pIC50", "setting": "[1]; [13]", "result": 4.14}]}
{"molecule": "CC[C@@]1(O)C(=O)OCc2c1cc1n(c2=O)Cc2cc3ccccc3nc2-1", "note": "[C]", "values": [{"measurement": "IC90", "setting": "[1]; [11]", "result": 0.8, "unit": "µM"}, {"measurement": "IC90", "setting": "[1]; [12]", "result": 0.8, "unit": "µM"}, {"measurement": "inhibition at 25 µM", "setting": "[1]; [13]", "result": 98, "unit": "%"}, {"measurement": "CC50", "setting": "in vitro [2]", "result": 20, "unit": "µM"}, {"measurement": "inhibition at 10 µM", "setting": "[3]; read-out: inhibition of HIV/EBOV-GP infection, Assay 3: compounds pre-incubated with the virus for 1 hour at 37° C.", "result": "> 75", "unit": "%"}, {"measurement": "IC50", "setting": "[4]; [14]", "result": 10, "unit": "µM"}, {"measurement": "IC90", "setting": "[4]; [15]", "result": 23.5, "unit": "µM"}, {"measurement": "CC50", "setting": "in vitro [5]; GFP-ZEBOV CC50 (μM)", "result": 29.5, "unit": "µM"}, {"measurement": "inhibition at 25 µM", "setting": "[6]", "result": 0, "unit": "%"}]}
{"molecule": "FC(F)C(F)(F)C1=Nc2ccccc2N=C(c2ccccc2)C1", "note": "[Compound G]", "values": [{"measurement": "IC90", "setting": "[7]; read-out: HIV/MARV-GP IC90", "result": 10, "unit": "µM"}, {"measurement": "CC50", "setting": "293T cells", "result": 75, "unit": "µM"}, {"measurement": "inhibition, added at time 0 at 0° C. (\"binding\")", "setting": "[8]", "result": "> 75", "unit": "%"}, {"measurement": "Inhibition of pseudotype virus at 25 μM in 293T cells (%) HIV/EBOV-GP", "setting": "[1]; 25 μM", "result": 96, "unit": "%"}, {"measurement": "IC90", "setting": "[1]; read-out: HIV/EBOV-GP IC90", "result": 12.1, "unit": "µM"}, {"measurement": "IC90", "setting": "[1]; read-out: HIV/EBOV-Gp IC90", "result": 12.1, "unit": "µM"}, {"measurement": "pIC50", "setting": "[1]; read-out: IC50", "result": 4.92}, {"measurement": "IC90", "setting": "[1]; read-out: IC90 (μM) against HIV/EBOV-GP", "result": 20.1, "unit": "µM"}, {"measurement": "GFP-ZEBOV percentage in parentheses beside IC90 >25", "setting": "[4]", "result": ">25 (70%)"}, {"measurement": "pIC50", "setting": "[4]; read-out: GFP-ZEBOV IC50", "result": 5.00}, {"measurement": "IC90", "setting": "[4]; read-out: GFP-ZEBOV IC90", "result": "> 25", "unit": "µM"}, {"measurement": "pIC50", "setting": "[4]; read-out: Infectious EBOV IC50", "result": 5.00}, {"measurement": "IC90", "setting": "[9]; read-out: HIV/HA (H5) IC90", "result": "> 50", "unit": "µM"}, {"measurement": "Inhibition of pseudotype virus at 25 μM in 293T cells (%) HIV/VSV-GP", "setting": "[6]; 25 μM", "result": 20, "unit": "%"}, {"measurement": "IC90", "setting": "[10]; read-out: HIV/LASV-GP IC90", "result": "> 50", "unit": "µM"}]}
{"molecule": "COc1ccc(OC)c(NC(=O)CC(c2ccc(OC)cc2OC)S(=O)(=O)c2ccccc2)c1", "note": "(stereo not drawn) [I]", "values": [{"measurement": "IC90", "setting": "[7]; [16]", "result": 2.8, "unit": "µM"}, {"measurement": "activity when added after virus infection (+1 h) (\"fusion\")", "setting": "[8]", "result": "active"}, {"measurement": "IC90", "setting": "[1]; [17]", "result": 2.7, "unit": "µM"}, {"measurement": "CC50", "setting": "in vitro [2]", "result": 32, "unit": "µM"}, {"measurement": "IC50", "setting": "[4]; [18]", "result": 4.6, "unit": "µM"}, {"measurement": "IC90", "setting": "[9]; [19]", "result": "> 50", "unit": "µM"}, {"measurement": "CC50", "setting": "in vitro [5]; Infectious EBOV CC50 (μM)", "result": 40, "unit": "µM"}, {"measurement": "IC90", "setting": "[10]; [20]", "result": "> 50", "unit": "µM"}]}
{"molecule": "CC1=CC(c2ccccc2)=Nc2cc3ccccc3cc2N1", "note": "[Compound G1]", "values": [{"measurement": "pIC50", "setting": "[1]; [13]", "result": 4.05}]}
{"molecule": "CCOc1ccc(NC(=O)CSc2nnc(COc3cccc(N(C)C)c3)n2-c2ccccc2)cc1", "note": "[K]", "values": [{"measurement": "IC90", "setting": "[7]; [16]", "result": 11, "unit": "µM"}, {"measurement": "cytotoxicity, second value column of Table 7 (head only in drawing)", "setting": "293T cells; human", "result": 98}, {"measurement": "activity when added after virus infection (+1 h) (\"fusion\")", "setting": "[8]", "result": "active"}, {"measurement": "selectivity index, third value column of Table 7 (head only in drawing)", "setting": "[1]", "result": 39}, {"measurement": "IC90", "setting": "[1]; [17]", "result": 2, "unit": "µM"}, {"measurement": "pIC50", "setting": "[1]; Human immunodeficiency virus 1, HEK-293T, read-out: antiviral potency, first value column of Table 7 (head only in drawing)", "result": 5.60}, {"measurement": "CC50", "setting": "in vitro [2]", "result": 98, "unit": "µM"}, {"measurement": "IC50", "setting": "[4]; [18]", "result": 2.5, "unit": "µM"}, {"measurement": "IC90", "setting": "[9]; [19]", "result": "> 50", "unit": "µM"}, {"measurement": "CC50", "setting": "in vitro [5]; Infectious EBOV CC50 (μM)", "result": 50, "unit": "µM"}, {"measurement": "IC90", "setting": "[10]; [20]", "result": "> 50", "unit": "µM"}]}
{"molecule": "Nc1nccc2c1ncn2[C@@H]1C[C@H](CO)[C@@H](O)[C@H]1O", "note": "[C-c3Ado, carbocyclic adenosine analog 3-deazaadenosinc]", "values": [{"measurement": "pIC50", "setting": "EboZ replication", "result": 4.52}]}
{"molecule": "Cc1ccc(C2=Nc3ccccc3N=C(C(F)(F)F)C2)cc1", "note": "[Compound G6]", "values": [{"measurement": "pIC50", "setting": "[1]; [13]", "result": 4.12}]}
{"molecule": "Bafilomycin", "values": [{"measurement": "inhibition of cell-cell fusion, VSV-G expressing cells", "setting": "VSV-G", "result": "completely inhibited"}, {"measurement": "inhibition of cell-cell fusion, EBOV expressing cells", "setting": "EBOV Δmucin GP", "result": "completely inhibited"}]}
